Measured values published in patent US8097758B2, “Isoserine derivatives for use as coagulation factor IXa inhibitors” (Sanofi-Aventis, priority 2006, dated 2012).

Target: T1, factor IXa (Homo sapiens, UniProt P00740)
T1 construct: purchased Calbiochem (Merck KGaA) 233290
Assay: Factor IXa enzyme assay (chromogenic substrate PEFA 3107)
Type: biochemical
Conditions: factor IXa 277 nM final, pH 7.4, 15 min preincubation at room temperature, read at 405 nm, duplicate determination
Experimental: The prepared substances from the examples were tested for inhibition of the enzymatic activity of FIXa using the substrate PEFA 3107 (Pentapharm/Loxo; via S. Black GmbH, Baumstrasse 41, 47198 Duisburg, Germany; Pr. No. 095-20) and factor IXa (Calbiochem, Merck KGaA markets Calbiochem in Germany, Life Science & Analytics, 64293 Darmstadt; Pr. No. 233290). In this method, 28 μl of test buffer (50 mM α,α,α-tris(hydroxymethyl)methylamine (TRIS), 100 mM NaCl, 5 mM CaCl2, 0.1% bovine serum albumin, pH 7.4) and 10 μl of factor IXa (277 nM final concentration in the test batch) were added to 2 μl of 10 mM dimethyl sulfoxide solution of the respective test substance, and the mixture was incubated for 15 minutes at room temperature in a 96 half-well microtiter plate. The enzyme reaction was started by addition of 10 μl of substrate (1 mM stock solution in water). The time course of the reaction was monitored at 405 nm in a microtiter plate reader (SpectraMax plus 384; Molecular Devices) for 15 minutes.
The IC50 was calculated from the averaged values (duplicate determination) of a dilution series of the test substance with the aid of the software Grafit 4 (Erithacus Software, UK). The inhibition constants (Ki) were calculated according to the Cheng Prusoff equation Ki=IC50/(1+(S/Km), where S=concentration of the test substrate in the test and Km=Michaelis-Menten constant.

T1 sequence (P00740 227-461 limits assumed): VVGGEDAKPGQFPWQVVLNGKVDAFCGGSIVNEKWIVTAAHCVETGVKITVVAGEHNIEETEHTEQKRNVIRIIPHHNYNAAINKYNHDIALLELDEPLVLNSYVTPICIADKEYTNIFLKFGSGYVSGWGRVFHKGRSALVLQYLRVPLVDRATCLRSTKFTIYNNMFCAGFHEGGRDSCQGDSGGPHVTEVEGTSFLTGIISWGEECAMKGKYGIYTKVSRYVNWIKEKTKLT
T1 sequence (P00740 47-191 partner limits assumed): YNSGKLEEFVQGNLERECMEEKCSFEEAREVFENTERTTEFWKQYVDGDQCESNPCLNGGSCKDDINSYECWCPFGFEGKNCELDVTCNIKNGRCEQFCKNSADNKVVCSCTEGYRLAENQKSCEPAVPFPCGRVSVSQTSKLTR

Compound	IC50 [nM]
CC(C)c1ccc(C(=O)NC(c2ccccc2)C(O)C(=O)Nc2ccc3nc(N)[nH]c3c2)cc1 (stereo not drawn) [Example 17, N-[2-(2-Amino-3H-benzimidazol-5-ylcarbamoyl)-2-hydroxy-1-phenylethyl]-4-isopropylbenzamide]	280
CCc1ccc(C(=O)NC(c2ccccc2)C(O)C(=O)Nc2ccc3nc(N)[nH]c3c2)s1 (stereo not drawn) [Example 68, 5-Ethylthiophene-2-carboxylic acid [2-(2-amino-3H-benzimidazol-5-ylcarbamoyl)-2-hydroxy-1-phenylethyl]amide]	730
CCc1ccc(C(=O)NC(c2ccccc2)C(O)C(=O)Nc2ccc3c(N)nccc3c2)cc1 (stereo not drawn) [Example 87, N-[2-(1-Aminoisoquinolin-6-ylcarbamoyl)-2-hydroxy-1-phenylethyl]-4-ethylbenzamide]	140

Continued, values first:

IC50 [nM]	Compound
1340	Nc1nc2ccc(NC(=O)C(O)C(NC(=O)c3ccc(N4CCOCC4)cc3)c3ccccc3)cc2[nH]1 (stereo not drawn) [Example 53, N-[2-(2-Amino-3H-benzimidazol-5-ylcarbamoyl)-2-hydroxy-1-phenylethyl]-4-morpholin-4-yl-benzamide]
570	Nc1nc2ccc(NC(=O)C(O)C(NC(=O)c3ccc(-c4cccs4)s3)c3ccccc3)cc2[nH]1 (stereo not drawn) [Example 81, [2,2′]Bithiophenyl-5-carboxylic acid [2-(2-amino-3H-benzimidazol-5-ylcarbamoyl)-2-hydroxy-1-phenylethyl]amide]
170	COc1cc(OC)cc(C(NC(=O)c2ccc(C(C)C)cc2)C(O)C(=O)Nc2ccc3nc(N)[nH]c3c2)c1 (stereo not drawn) [Example 134, N-[2-(2-Amino-3H-benzimidazol-5-ylcarbamoyl)-1-(3,5-dimethoxyphenyl)-2-hydroxyethyl]-4-iso-propylbenzamide]
